What was measured:
PDGFRα = PDGFRα (Homo sapiens, UniProt P16234); assay: PDGFR kinase assay, Caliper microfluidic mobility shift; type: biochemical
Experimental: (§1) In vitro inhibitory activities of all compounds at 1 μM against PDGFRα and PDGFRβ were evaluated using Caliper microfluidic mobility shift technology. […] At the same concentration, only E5 inhibited greater than 50% of PDGFRβ activity (Fig. 2B).
(§2) PDGFR kinase activity was measured using Caliper microfluidic mobility shift technology. Briefly, 2 μL compound solution (25 μM) in 25% DMSO per well were added into the 384 well microtiter plates. Then, 10 μL per well of enzyme solution (100 mM HEPES, 10 mM MgCl2, Brij35 (30%) 100 μL, 1 mM DTT, 20 ng enzyme) was added. After a brief centrifugation at 1,000 rpm, the kinase reactions were started by addition of 38 μL per well of peptide/ATP-solution (40 μM ATP, 6.5 μM peptide 5′-FAM-KKKKEEIYFFF-NH2, Tris-HCl buffer, pH 7.0) incubated at 30 °C for 60 min and stopped by the addition of 20 μL 35 mM EDTA per well. The electrophoretic separation of the phosphorylated and non-phosphorylated peptides was then carried out on LabChip EZ Reader II (Caliper Life Sciences). All other kinase reactions were carried out as previously reported using the Kinase-Glo Plus or ADP-Glo assay. Kinase inhibition rates were calculated per manufacturer’s instructions.

PDGFRβ = PDGFRβ (Homo sapiens, UniProt P09619); assay: as above; type: biochemical; conditions: averages of two separate experiments
Chain of PDGFRβ (P09619 33-1106): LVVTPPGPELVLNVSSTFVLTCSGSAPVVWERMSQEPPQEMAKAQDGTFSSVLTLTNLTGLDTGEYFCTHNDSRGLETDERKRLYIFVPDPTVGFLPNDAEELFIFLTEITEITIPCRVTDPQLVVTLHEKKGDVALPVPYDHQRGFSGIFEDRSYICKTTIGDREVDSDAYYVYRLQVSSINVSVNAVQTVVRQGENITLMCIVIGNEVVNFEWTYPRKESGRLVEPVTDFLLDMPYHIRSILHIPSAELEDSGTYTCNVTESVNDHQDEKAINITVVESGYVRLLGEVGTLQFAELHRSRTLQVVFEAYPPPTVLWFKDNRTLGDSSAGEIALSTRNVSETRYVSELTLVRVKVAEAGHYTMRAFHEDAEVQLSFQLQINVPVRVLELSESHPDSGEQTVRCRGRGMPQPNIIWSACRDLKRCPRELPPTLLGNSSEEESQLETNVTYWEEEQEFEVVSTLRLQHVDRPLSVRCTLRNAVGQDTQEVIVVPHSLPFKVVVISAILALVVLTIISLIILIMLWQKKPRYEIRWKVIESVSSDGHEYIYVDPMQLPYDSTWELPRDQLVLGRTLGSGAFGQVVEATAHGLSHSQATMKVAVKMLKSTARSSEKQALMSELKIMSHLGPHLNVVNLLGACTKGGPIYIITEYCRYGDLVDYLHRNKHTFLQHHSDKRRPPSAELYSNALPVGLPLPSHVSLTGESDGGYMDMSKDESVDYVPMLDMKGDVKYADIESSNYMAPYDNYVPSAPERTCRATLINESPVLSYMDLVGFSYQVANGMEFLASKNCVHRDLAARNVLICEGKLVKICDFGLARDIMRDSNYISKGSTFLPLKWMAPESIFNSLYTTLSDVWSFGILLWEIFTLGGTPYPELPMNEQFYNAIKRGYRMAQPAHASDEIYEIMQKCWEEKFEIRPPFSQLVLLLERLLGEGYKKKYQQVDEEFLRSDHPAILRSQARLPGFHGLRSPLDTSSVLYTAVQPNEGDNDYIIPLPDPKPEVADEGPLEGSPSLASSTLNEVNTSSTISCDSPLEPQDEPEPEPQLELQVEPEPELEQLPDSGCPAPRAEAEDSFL
Experimental: as §1, §2

HepG2 cells [1] = assay: Apoptosis by Annexin V/PI flow cytometry; type: cell-based; conditions: 24 h, Annexin V/PI double staining
Experimental: (§3) We next explored the apoptosis-inducing ability of E5 in HCC cells. Bel7404 and HepG2 cells were treated with E5 for 24 h and stained with the fluorescent DNA-binding dye, Hoechst 33258. The cells were brightly stained in a dose-dependent manner, showing a typical morphological sign of apoptosis (Fig. 5A). […] Furthermore, E5 induced a specific cleavage of PARP and a decrease of pro-form of caspase-3, caspase-7 and caspase-9 (Fig. 5C). […] In addition, the pan-caspase inhibitor Z-VAD-FMK partially rescued the viability of HCC cells reduced by E5, implying that E5 might also induce non-apoptotic form of cell death (Fig. 5D).
(§4) Cells were incubated with E5 for 24 h, after which cells were washed, stained and subjected to flow cytometry analysis. The cell cycle was analyzed by staining with propidium iodide (PI), and the extent of cell death/apoptosis was evaluated by double staining with annexin V-FITC and PI. The fluorescence was measured with a FACScan flow cytometer (Becton Dickinson, USA).

Bel7404 cells [2] = assay: Apoptosis by Annexin V/PI flow cytometry; type: cell-based; conditions: 24 h, Annexin V/PI double staining
Experimental: as §3, §4

HepG2 cells [3] = assay: Cell cycle distribution by flow cytometry (PI); type: cell-based; conditions: 24 h treatment
Experimental: as §4

Bel7404 cells [4] = assay: Cell cycle distribution by flow cytometry (PI); type: cell-based; conditions: 24 h treatment
Experimental: as §4

FLT3 = FLT3 (Homo sapiens, UniProt P36888); assay: Kinase profiling (Kinase-Glo Plus or ADP-Glo); type: biochemical; conditions: averages of two separate experiments
Chain of FLT3 (P36888 27-993, species assumed): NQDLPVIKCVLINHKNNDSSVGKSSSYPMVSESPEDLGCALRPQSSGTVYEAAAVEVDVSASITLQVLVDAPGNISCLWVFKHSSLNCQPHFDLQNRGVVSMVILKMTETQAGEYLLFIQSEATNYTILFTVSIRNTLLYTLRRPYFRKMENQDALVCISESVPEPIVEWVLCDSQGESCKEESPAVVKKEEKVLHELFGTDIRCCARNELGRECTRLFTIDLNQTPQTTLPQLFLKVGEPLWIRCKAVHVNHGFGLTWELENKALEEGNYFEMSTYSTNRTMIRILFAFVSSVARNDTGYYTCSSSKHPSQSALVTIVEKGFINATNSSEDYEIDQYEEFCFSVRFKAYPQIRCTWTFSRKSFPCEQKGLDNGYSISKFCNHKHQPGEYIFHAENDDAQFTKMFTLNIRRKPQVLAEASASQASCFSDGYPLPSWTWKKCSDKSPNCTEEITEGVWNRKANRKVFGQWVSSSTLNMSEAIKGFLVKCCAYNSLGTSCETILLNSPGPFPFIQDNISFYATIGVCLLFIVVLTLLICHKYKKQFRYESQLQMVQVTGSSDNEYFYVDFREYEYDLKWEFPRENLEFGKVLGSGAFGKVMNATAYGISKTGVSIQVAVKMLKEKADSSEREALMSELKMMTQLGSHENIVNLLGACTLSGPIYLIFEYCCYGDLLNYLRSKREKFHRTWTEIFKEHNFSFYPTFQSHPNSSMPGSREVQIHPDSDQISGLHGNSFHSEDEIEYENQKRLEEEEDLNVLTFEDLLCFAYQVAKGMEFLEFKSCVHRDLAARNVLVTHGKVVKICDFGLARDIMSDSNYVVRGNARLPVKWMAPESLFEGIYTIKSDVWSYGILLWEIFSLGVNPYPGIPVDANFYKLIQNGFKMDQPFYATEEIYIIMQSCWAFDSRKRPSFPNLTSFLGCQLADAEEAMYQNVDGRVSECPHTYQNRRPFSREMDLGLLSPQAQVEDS
Experimental: (§5) To better characterize kinase inhibition, the ability of E5 to inhibit a panel of purified kinases was assessed.
as §2

EGFR = EGFR (Homo sapiens, UniProt P00533); assay: Kinase profiling (Kinase-Glo Plus or ADP-Glo); type: biochemical; conditions: averages of two separate experiments
Experimental: as §5, §2

CSF1R = CSF1R (Homo sapiens, UniProt P07333); assay: Kinase profiling (Kinase-Glo Plus or ADP-Glo); type: biochemical; conditions: averages of two separate experiments
Chain of CSF1R (P07333 20-972): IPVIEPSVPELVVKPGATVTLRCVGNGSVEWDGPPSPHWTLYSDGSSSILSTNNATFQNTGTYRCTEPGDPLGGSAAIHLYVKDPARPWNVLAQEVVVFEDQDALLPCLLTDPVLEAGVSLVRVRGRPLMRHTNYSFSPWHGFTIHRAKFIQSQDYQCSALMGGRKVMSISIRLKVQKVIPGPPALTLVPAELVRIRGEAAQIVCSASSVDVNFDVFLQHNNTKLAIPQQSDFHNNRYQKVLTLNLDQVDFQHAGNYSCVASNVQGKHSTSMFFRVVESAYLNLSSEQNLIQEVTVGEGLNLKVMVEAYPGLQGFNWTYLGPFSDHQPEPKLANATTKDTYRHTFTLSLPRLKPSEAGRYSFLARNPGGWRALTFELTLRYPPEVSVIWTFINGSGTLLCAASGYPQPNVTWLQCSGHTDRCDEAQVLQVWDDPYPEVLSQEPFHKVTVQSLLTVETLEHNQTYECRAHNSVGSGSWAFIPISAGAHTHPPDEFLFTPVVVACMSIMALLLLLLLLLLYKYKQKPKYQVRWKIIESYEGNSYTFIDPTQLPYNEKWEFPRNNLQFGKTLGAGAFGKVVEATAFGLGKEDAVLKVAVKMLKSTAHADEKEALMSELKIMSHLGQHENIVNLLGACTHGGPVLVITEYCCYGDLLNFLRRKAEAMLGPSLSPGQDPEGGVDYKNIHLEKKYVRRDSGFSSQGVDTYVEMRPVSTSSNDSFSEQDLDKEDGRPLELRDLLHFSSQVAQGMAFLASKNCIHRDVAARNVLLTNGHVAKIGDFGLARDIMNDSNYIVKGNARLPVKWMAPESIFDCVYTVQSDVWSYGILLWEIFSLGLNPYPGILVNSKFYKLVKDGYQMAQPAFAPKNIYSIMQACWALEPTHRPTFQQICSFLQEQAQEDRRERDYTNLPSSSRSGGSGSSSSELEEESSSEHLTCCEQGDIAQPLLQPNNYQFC
Experimental: as §5, §2

Raf-1 = Raf-1 (Homo sapiens, UniProt P04049); assay: Kinase profiling (Kinase-Glo Plus or ADP-Glo); type: biochemical; conditions: averages of two separate experiments
Experimental: as §5, §2

B-raf = B-raf (Homo sapiens, UniProt P15056); assay: Kinase profiling (Kinase-Glo Plus or ADP-Glo); type: biochemical; conditions: averages of two separate experiments
Experimental: as §5, §2

FGFR1 = FGFR1 (Homo sapiens, UniProt P11362); assay: Kinase profiling (Kinase-Glo Plus or ADP-Glo); type: biochemical; conditions: averages of two separate experiments
Experimental: as §5, §2

FGFR2 = FGFR2 (Homo sapiens, UniProt P21802); assay: Kinase profiling (Kinase-Glo Plus or ADP-Glo); type: biochemical; conditions: averages of two separate experiments
Experimental: as §5, §2

ABL2 = ABL2 (Homo sapiens, UniProt P42684); assay: Kinase profiling (Kinase-Glo Plus or ADP-Glo); type: biochemical; conditions: averages of two separate experiments
Experimental: as §5, §2

ABL1 = ABL1 (Homo sapiens, UniProt P00519); assay: Kinase profiling (Kinase-Glo Plus or ADP-Glo); type: biochemical; conditions: averages of two separate experiments
Experimental: as §5, §2

LCK = LCK (Homo sapiens, UniProt P06239); assay: Kinase profiling (Kinase-Glo Plus or ADP-Glo); type: biochemical; conditions: averages of two separate experiments
Chain of LCK (P06239 whole entry, species assumed): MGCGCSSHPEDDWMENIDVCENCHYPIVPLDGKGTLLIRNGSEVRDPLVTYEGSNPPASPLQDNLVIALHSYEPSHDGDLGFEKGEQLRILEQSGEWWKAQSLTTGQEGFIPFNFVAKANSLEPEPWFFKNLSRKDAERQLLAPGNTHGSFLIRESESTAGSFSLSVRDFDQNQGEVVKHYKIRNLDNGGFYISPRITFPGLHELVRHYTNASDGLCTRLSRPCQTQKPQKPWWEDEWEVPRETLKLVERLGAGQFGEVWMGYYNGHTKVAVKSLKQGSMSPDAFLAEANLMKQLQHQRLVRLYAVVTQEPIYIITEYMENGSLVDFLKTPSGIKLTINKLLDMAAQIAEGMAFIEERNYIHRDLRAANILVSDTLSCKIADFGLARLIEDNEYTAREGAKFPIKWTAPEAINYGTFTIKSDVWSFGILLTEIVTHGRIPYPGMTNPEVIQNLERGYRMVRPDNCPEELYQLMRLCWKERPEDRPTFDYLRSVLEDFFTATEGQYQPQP
Experimental: as §5, §2

BLK = BLK (Homo sapiens, UniProt P51451); assay: Kinase profiling (Kinase-Glo Plus or ADP-Glo); type: biochemical; conditions: averages of two separate experiments
Chain of BLK (P51451 whole entry, species assumed): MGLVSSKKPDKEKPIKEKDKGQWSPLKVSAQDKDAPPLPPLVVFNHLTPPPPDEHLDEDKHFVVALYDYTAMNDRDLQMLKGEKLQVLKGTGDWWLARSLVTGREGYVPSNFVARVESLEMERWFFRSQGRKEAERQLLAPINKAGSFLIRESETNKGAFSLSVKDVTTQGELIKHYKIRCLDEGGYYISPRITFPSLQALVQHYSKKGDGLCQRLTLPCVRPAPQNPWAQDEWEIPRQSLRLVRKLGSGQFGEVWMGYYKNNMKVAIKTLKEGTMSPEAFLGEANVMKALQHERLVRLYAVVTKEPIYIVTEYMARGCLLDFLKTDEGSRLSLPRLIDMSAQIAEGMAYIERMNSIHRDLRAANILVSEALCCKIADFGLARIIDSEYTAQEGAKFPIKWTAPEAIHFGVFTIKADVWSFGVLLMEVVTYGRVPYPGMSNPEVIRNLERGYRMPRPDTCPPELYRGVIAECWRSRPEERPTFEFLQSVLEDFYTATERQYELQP
Experimental: as §5, §2

c-KIT = c-KIT (Homo sapiens, UniProt P10721); assay: Kinase profiling (Kinase-Glo Plus or ADP-Glo); type: biochemical; conditions: averages of two separate experiments
Experimental: as §5, §2

Chain of PDGFRα (P16234 24-1089): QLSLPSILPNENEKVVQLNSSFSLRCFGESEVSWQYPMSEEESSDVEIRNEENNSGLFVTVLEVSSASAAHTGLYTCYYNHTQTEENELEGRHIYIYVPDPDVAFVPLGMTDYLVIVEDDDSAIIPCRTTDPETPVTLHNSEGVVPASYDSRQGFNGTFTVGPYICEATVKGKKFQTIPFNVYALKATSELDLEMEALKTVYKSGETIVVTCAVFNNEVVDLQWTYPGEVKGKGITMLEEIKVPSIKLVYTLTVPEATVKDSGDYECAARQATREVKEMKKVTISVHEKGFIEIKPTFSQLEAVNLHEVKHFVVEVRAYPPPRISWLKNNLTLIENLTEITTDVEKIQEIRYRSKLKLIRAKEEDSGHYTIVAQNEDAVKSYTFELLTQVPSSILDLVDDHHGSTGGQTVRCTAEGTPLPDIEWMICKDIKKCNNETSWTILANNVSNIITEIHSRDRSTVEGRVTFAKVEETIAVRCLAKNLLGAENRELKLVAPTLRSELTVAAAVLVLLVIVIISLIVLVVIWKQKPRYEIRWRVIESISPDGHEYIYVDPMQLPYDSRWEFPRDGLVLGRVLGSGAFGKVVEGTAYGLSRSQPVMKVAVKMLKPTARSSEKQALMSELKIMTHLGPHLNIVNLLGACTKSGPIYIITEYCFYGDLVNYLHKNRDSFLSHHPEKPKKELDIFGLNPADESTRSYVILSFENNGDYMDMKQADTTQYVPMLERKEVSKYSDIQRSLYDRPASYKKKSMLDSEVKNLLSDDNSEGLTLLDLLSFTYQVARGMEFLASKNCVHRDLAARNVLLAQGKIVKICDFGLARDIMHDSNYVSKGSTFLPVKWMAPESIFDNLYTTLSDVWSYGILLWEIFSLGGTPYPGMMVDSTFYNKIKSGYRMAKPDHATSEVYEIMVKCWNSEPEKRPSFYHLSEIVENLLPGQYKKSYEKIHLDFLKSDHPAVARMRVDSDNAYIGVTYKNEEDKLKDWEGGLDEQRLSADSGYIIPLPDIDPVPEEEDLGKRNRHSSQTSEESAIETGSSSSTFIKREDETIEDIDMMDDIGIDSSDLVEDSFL

Selectivity index (PDGFRα; IC50 (PDGFRβ)/ IC50 (PDGFRα)): 2.32
IC50 (PDGFRα; averages of two separate experiments): 400 nM
inhibition at 1 µM (PDGFRα; compound at 1 µM, averages of two separate experiments, read-out: Inhibition effect (%) PDGFRα): > 85%
IC50 (PDGFRβ): 930 nM
IC50 PDGFRβ (PDGFRβ): moderate inhibitory activity
inhibition at 1 µM (PDGFRβ; compound at 1 µM, read-out: Inhibition effect (%) PDGFRβ): > 50%
IC50 (FLT3): > 25 µM
IC50 FLT3 (FLT3): no inhibition
IC50 (EGFR): > 25 µM
IC50 (CSF1R): 1120 nM
IC50 CSF1R (CSF1R): moderate inhibitory activity
IC50 (Raf-1): > 25 µM
IC50 (B-raf): > 25 µM
IC50 (FGFR1): > 25 µM
IC50 (FGFR2): > 25 µM
IC50 (ABL2): 4.36 µM
IC50 (ABL1): 9.35 µM
IC50 (LCK): > 25 µM
IC50 (BLK): > 25 µM
IC50 (c-KIT): 510 nM
Structure (SMILES): Cc1ccc(NC(=O)c2ccc(CN3CCN(C)CC3)cc2)cc1Oc1nccc(-c2cc3ccccc3o2)n1 [E5, N-(3-((4-(benzofuran-2-yl)pyrimidin-2-yl)oxy)-4-methylphenyl)-4-((4-methylpiperazin-1-yl)methyl)benzamide]
Apoptosis induction (HepG2 cells [1]): induced apoptosis in a dose-dependent manner
Apoptosis induction (Bel7404 cells [2]): induced apoptosis in a dose-dependent manner
Effect on cell cycle distribution (HepG2 cells [3]): elicited G2/M phase arrest in a dose-dependent manner
Effect on cell cycle distribution (Bel7404 cells [4]): elicited G2/M phase arrest in a dose-dependent manner

Reference: PMC6053381, “Novel 2-phenyloxypyrimidine derivative induces apoptosis and autophagy via inhibiting PI3K pathway and activating MAPK/ERK signaling in hepatocellular carcinoma cells” (Scientific Reports, 2018)
